Measured values published in ChEMBL document CHEMBL4138216, “Design, synthesis and structure-activity relationship of a focused library of β-phenylalanine derivatives as novel eEF2K inhibitors with apoptosis-inducing mechanisms in breast cancer” (Eur J Med Chem, 2018).

How the values were obtained:
[1] = target: T1, Eukaryotic elongation factor 2 kinase (Homo sapiens, UniProt O00418); assay: Inhibition of eEF2K (unknown origin) using peptide MH-1 as substrate after 2 hrs by ADP-Glo luminescent assay
T1 sequence (O00418 whole entry): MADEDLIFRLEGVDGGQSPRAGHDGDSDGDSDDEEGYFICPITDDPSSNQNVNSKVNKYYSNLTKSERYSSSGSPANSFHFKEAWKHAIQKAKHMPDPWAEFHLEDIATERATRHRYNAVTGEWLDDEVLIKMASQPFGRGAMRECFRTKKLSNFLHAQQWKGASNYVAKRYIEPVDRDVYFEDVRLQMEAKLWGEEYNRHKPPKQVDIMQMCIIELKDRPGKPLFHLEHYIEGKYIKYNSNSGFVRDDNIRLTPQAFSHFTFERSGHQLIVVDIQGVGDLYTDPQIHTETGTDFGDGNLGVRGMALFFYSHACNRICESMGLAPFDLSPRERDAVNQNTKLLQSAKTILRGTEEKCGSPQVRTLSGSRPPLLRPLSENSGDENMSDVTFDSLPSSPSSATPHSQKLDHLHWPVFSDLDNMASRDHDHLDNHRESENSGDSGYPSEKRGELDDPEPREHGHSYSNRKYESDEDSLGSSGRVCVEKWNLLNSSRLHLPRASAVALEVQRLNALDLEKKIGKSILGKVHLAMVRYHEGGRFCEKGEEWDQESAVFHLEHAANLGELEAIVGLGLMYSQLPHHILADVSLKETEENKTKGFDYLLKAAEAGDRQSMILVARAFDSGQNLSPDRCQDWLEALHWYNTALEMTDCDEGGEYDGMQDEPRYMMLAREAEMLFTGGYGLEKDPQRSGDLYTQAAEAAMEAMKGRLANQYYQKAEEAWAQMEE

MDA-MB-231 = assay: cells; settings: Homo sapiens, MDA-MB-231, 24 h
Description: Antiproliferative activity against human MDA-MB-231 cells assessed as decrease in cell viability after 24 hrs by MTT assay

MDA-MB-436 = assay: Antiproliferative activity against human MDA-MB-436 cells assessed as decrease in cell viability after 24 hrs by MTT assay; assay type: functional, cell-based; settings: MDA-MB-436, 24 h
[2] = target: T1, Eukaryotic elongation factor 2 kinase; assay: Inhibition of N-terminal GST-tagged recombinant human eEF2K expressed in Escherichia coli using biotinylated myelin basic protein as substrate after 45 mins in presence of [gamma-33P]-ATP by scintillation counting method
[3] = target: T2, Eukaryotic elongation factor 2 kinase (Rattus norvegicus, UniProt P70531); assay: Inhibition of recombinant rat GST-tagged eEF2K expressed in Escherichia coli BL21 (DE3) cells using yeast eEF2 as substrate preincubated for 30 mins followed by ATP/[gamma-32P]-ATP addition measured after 10 mins
T2 sequence (P70531 whole entry): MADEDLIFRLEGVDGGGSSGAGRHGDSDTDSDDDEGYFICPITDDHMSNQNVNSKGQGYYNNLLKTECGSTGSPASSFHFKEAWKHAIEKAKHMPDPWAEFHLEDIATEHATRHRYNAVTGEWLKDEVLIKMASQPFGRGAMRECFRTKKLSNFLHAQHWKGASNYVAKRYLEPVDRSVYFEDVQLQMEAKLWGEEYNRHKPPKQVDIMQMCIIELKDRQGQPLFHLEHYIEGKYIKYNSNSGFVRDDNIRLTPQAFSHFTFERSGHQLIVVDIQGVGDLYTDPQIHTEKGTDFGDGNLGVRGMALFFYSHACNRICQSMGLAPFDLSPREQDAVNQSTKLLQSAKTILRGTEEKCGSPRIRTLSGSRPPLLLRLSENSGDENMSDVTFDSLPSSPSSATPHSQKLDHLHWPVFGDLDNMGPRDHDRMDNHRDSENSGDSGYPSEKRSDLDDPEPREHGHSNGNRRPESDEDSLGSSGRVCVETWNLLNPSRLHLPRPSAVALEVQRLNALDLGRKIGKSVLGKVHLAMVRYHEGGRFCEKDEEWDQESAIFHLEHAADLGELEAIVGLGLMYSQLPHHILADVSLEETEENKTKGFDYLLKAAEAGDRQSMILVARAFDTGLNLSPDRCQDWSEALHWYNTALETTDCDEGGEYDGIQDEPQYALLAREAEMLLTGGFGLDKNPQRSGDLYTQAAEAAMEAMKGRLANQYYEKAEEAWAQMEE

Row | Structure (SMILES) | IC50 [1] | IC50 (MDA-MB-231) | IC50 (MDA-MB-436) | IC50 [2] | IC50 [3]
1 | CCCCCCCCCCCCCCCC[N+]1=C(C)N(Cc2ccccc2)CC1 |  |  |  | 0.06 µM | 
2 | O=C(O)CC(NS(=O)(=O)c1cc(F)cc(F)c1)c1ccccc1F (centres undefined) | 19.4 µM | 73.5 µM | 89.3 µM |  | 
3 | CC(C)(C)c1ccc(C(CC(=O)O)NC(=O)c2ccc(Cl)cc2Cl)cc1 (centres undefined) | 23.8 µM | 67.8 µM | > 100 µM |  | 
4 | CC(C)(C)c1ccc(C(CC(=O)O)NS(=O)(=O)c2ccc(F)cc2)cc1 (centres undefined) | 38.5 µM | 66.2 µM | 68.9 µM |  | 
5 | COc1ccccc1C(=O)NC(CC(=O)O)c1ccc(Cl)cc1Cl (centres undefined) | > 50 µM | > 100 µM | > 100 µM |  | 
6 | CNC(=O)c1cc(Oc2ccc(NC(=O)Nc3ccc(Cl)c(C(F)(F)F)c3)cc2)ccn1 [SORAFENIB] |  | 2.8 µM | 4.2 µM |  | 
7 | O=C(O)CC(NC(=O)c1ccc(Cl)cc1Cl)c1ccc(Cl)cc1Cl (centres undefined) | 19.9 µM | 49.2 µM | 57.3 µM |  | 
8 | CC(C)(C)c1ccc(C(CC(=O)O)NC(=O)c2ccc(F)cc2)cc1 (centres undefined) | 31.6 µM | 87.6 µM | > 100 µM |  | 
9 | COc1ccc(C(=O)NC(CC(=O)O)c2ccc(C(C)(C)C)cc2)cc1 (centres undefined) | 47.9 µM | > 100 µM | > 100 µM |  | 
10 | O=C(O)CC(NC(=O)c1ccc(C(F)(F)F)cc1)c1ccc(Cl)cc1Cl (centres undefined) | 11.7 µM | 39.1 µM | 44.1 µM |  | 
11 | O=C(O)CC(NC(=O)c1ccc(Cl)cc1Cl)c1ccccc1F (centres undefined) | 33.7 µM | 89.3 µM | > 100 µM |  | 
12 | CC(C)(C)c1ccc(C(CC(=O)O)NS(=O)(=O)c2ccc(C(F)(F)F)cc2)cc1 (centres undefined) | 18.4 µM | 53.7 µM | 60.1 µM |  | 
13 | O=C(O)CC(NS(=O)(=O)c1ccc(C(F)(F)F)cc1)c1ccc(Cl)cc1Cl (centres undefined) | 9.5 µM | 30.4 µM | 37.6 µM |  | 
14 | CC(C)(C)c1ccc(C(CC(=O)O)NC(=O)c2c(Cl)cccc2Cl)cc1 (centres undefined) | > 50 µM | > 100 µM | > 100 µM |  | 
15 | COc1ccc(C(=O)NC(CC(=O)O)c2ccc(Cl)cc2Cl)cc1 (centres undefined) | 44.4 µM | > 100 µM | > 100 µM |  | 
16 | CC(C)(C)c1ccc(C(CC(=O)O)NC(=O)c2ccc(C(F)(F)F)cc2)cc1 (centres undefined) | 22.6 µM | 78.8 µM | 82.3 µM |  | 
17 | O=C(O)CC(NS(=O)(=O)c1cc(F)cc(F)c1)c1ccc(Cl)cc1Cl (centres undefined) | 12.5 µM | 35.7 µM | 49.6 µM |  | 
18 | O=C(O)CC(NC(=O)c1cccc(Br)c1)c1ccccc1F (centres undefined) | > 50 µM | > 100 µM | > 100 µM |  | 
19 | O=C(O)CC(NC(=O)c1ccc(F)cc1)c1ccc(Cl)cc1Cl (centres undefined) | 17.1 µM | 58.3 µM | 55.8 µM |  | 
20 | CCC1(O)CC(C(C)C)[Se]C(c2ccc(C)cc2)=N1 (centres undefined) |  |  |  |  | 0.36 µM
21 | COc1ccccc1C(=O)NC(CC(=O)O)c1ccc(C(C)(C)C)cc1 (centres undefined) | > 50 µM | > 100 µM | > 100 µM |  | 
22 | O=C(O)CC(NC(=O)c1c(Cl)cccc1Cl)c1ccc(Cl)cc1Cl (centres undefined) | > 50 µM | > 100 µM | > 100 µM |  | 
23 | O=C(O)CC(NC(=O)c1ccc(C(F)(F)F)cc1)c1ccccc1F (centres undefined) | 44.5 µM | 59.2 µM | 66.8 µM |  | 
24 | CC(C)(C)c1ccc(C(CC(=O)O)NS(=O)(=O)c2ccc(OC(F)(F)F)cc2)cc1 (centres undefined) | > 50 µM | > 100 µM | > 100 µM |  | 
25 | O=C(O)CC(NS(=O)(=O)c1cccc([N+](=O)[O-])c1)c1ccc(Cl)cc1Cl (centres undefined) | 44.5 µM | 77.8 µM | > 100 µM |  | 
26 | O=C(O)CC(NC(=O)c1cccc(Br)c1)c1ccc(Cl)cc1Cl (centres undefined) | 28.4 µM | 82.5 µM | > 100 µM |  | 
27 | O=C(O)CC(NC(=O)c1ccc(F)cc1)c1ccccc1F (centres undefined) | 36.7 µM | 72.3 µM | > 100 µM |  | 

Continued, in another order:

Row | IC50 [1] | IC50 (MDA-MB-231) | IC50 (MDA-MB-436) | IC50 [2] | Structure (SMILES) | IC50 [3]
28 | 31.2 µM | 88.4 µM | > 100 µM |  | O=C(O)CC(NS(=O)(=O)c1ccc(F)cc1)c1ccccc1 (centres undefined) | 
29 | > 50 µM | > 100 µM | > 100 µM |  | CC(C)(C)c1ccc(S(=O)(=O)NC(CC(=O)O)c2ccccc2)cc1 (centres undefined) | 
30 | > 50 µM | > 100 µM | > 100 µM |  | O=C(O)CC(NS(=O)(=O)c1ccccc1Br)c1ccccc1 (centres undefined) | 
31 | 29.3 µM | 67.2 µM | 78.2 µM |  | O=C(O)CC(NC(=O)c1ccc(Cl)cc1Cl)c1ccccc1 (centres undefined) | 
32 | > 50 µM | > 100 µM | > 100 µM |  | O=C(O)CC(NS(=O)(=O)c1ccccc1Br)c1ccc(Cl)cc1Cl (centres undefined) | 
33 | 27.5 µM | 69.7 µM | 77.7 µM |  | N#Cc1ccc(S(=O)(=O)NC(CC(=O)O)c2ccccc2F)cc1 (centres undefined) | 
34 | > 50 µM | > 100 µM | > 100 µM |  | COc1ccccc1C(=O)NC(CC(=O)O)c1ccccc1 (centres undefined) | 
35 | 33.4 µM | 57.8 µM | 59 µM |  | O=C(O)CC(NS(=O)(=O)c1ccccc1)c1ccc(Cl)cc1Cl (centres undefined) | 
36 | 18.7 µM | 48.7 µM | 59.3 µM |  | N#Cc1ccc(S(=O)(=O)NC(CC(=O)O)c2ccccc2)cc1 (centres undefined) | 
37 | > 50 µM | > 100 µM | > 100 µM |  | O=C(O)CC(NS(=O)(=O)c1cccc([N+](=O)[O-])c1)c1ccccc1 (centres undefined) | 
38 | > 50 µM | > 100 µM | > 100 µM |  | CC(C)(C)c1ccc(C(CC(=O)O)NS(=O)(=O)c2ccccc2)cc1 (centres undefined) | 
39 | > 50 µM | > 100 µM | > 100 µM |  | O=C(O)CC(NC(=O)c1c(Cl)cccc1Cl)c1ccccc1 (centres undefined) | 
40 | 35.1 µM | 84.3 µM | > 100 µM |  | O=C(O)CC(NC(=O)c1ccc(F)cc1)c1ccccc1 (centres undefined) | 
41 | > 50 µM | > 100 µM | > 100 µM |  | O=C(O)CC(NS(=O)(=O)c1ccccc1)c1ccccc1F (centres undefined) | 
42 | > 50 µM | > 100 µM | > 100 µM |  | O=C(O)CC(NC(=O)c1cccc(Br)c1)c1ccccc1 (centres undefined) | 
43 | 37.8 µM | 79.3 µM | 69.4 µM |  | O=C(O)CC(NS(=O)(=O)c1cc(F)cc(F)c1)c1ccccc1 (centres undefined) | 
44 | 19.6 µM | 56.1 µM | 54.7 µM |  | O=C(O)CC(NS(=O)(=O)c1ccc(C(F)(F)F)cc1)c1ccccc1 (centres undefined) | 
45 | > 50 µM | > 100 µM | > 100 µM |  | COc1ccccc1S(=O)(=O)NC(CC(=O)O)c1ccc(C(C)(C)C)cc1 (centres undefined) | 
46 | 11.6 µM | 47.1 µM | 55.6 µM |  | O=C(O)CC(NS(=O)(=O)c1ccc(C(F)(F)F)cc1)c1ccccc1F (centres undefined) | 
47 | > 50 µM | > 100 µM | > 100 µM |  | O=C(O)CC(NS(=O)(=O)c1ccccc1)c1ccccc1 (centres undefined) | 
48 | > 50 µM | > 100 µM | > 100 µM |  | O=C(O)CC(NS(=O)(=O)c1ccc(OC(F)(F)F)cc1)c1ccccc1 (centres undefined) | 
